What was measured:
c-Abl = molecular target: T1, c-Abl (Homo sapiens, UniProt P00519); experiment: Test for activity against c-Abl protein tyrosine kinase (filter binding assay); type: biochemical
T1 construct: The His-tagged kinase domain of c-Abl is cloned and expressed in the baculovirus/Sf9 system; His; made in house; host or cells: baculovirus/Sf9
T1 sequence (P00519 242-493 limits assumed): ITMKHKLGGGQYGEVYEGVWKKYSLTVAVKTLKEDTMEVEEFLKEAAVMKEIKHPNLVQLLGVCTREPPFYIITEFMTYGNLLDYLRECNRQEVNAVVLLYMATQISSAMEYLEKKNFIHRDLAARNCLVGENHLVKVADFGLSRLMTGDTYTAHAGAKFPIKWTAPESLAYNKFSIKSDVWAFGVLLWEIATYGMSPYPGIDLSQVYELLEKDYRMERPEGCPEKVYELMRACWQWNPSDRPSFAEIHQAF
Experimental: Test for activity against c-Abl protein tyrosine kinase. The test is conducted as a filter binding assay as follows: The His-tagged kinase domain of c-Abl is cloned and expressed in the baculovirus/Sf9 system as described by Bhat et al., J Biol. Chem. 272, 16170-5 (1997). A protein of 37 kD (c-Abl kinase) is purified by a two-step procedure over a Cobalt metal chelate column followed by an anion exchange column with a yield of 1-2 mg/L of Sf9 cells. The purity of the c-Abl kinase is >90% as judged by SDS-PAGE after Coomassie blue staining. The assay contains: c-Abl kinase (50 ng), 20 mM Tris.HCl, pH 7.5, 10 mM MgCl2, 10 μM Na3VO4, 1 mM DTT and 0.06 μCi/assay [γ^33 P]-ATP (5 μM ATP) using 30 μg/mL poly-Ala,Glu,Lys,Tyr-6:2:5:1 (Poly-AEKY, Sigma P1152) in the presence of 1% DMSO, total volume of 30 μL. Reactions are terminated by adding 10 μL of 250 mM EDTA, and 30 μL of the reaction mixture is transferred onto Immobilon-PVDF membrane (Millipore, Bedford, Mass., USA) previously soaked for 5 min with methanol, rinsed with water, then soaked for 5 min with 0.5% H3PO4 and mounted on vacuum manifold with disconnected vacuum source. After spotting all samples, vacuum is connected and each well rinsed with 200 μL 0.5% H3PO4. Membranes are removed and washed on a shaker with 0.5% H3PO4 (4 times) and once with ethanol. Membranes are counted after drying at ambient temperature, mounting in Packard TopCount 96-well frame, and addition of 10 μL/well of Microscint™ (Packard).
(§1) Enzymatic (c-Abl, KDR, Flt3) in vitro inhibition data are presented as % inhibition at 10 μM. The measurements are made as described above in the general description.

KDR = KDR (Homo sapiens, UniProt P35968); experiment: Enzymatic KDR in vitro inhibition; type: biochemical
Sequence of KDR (P35968 20-1356): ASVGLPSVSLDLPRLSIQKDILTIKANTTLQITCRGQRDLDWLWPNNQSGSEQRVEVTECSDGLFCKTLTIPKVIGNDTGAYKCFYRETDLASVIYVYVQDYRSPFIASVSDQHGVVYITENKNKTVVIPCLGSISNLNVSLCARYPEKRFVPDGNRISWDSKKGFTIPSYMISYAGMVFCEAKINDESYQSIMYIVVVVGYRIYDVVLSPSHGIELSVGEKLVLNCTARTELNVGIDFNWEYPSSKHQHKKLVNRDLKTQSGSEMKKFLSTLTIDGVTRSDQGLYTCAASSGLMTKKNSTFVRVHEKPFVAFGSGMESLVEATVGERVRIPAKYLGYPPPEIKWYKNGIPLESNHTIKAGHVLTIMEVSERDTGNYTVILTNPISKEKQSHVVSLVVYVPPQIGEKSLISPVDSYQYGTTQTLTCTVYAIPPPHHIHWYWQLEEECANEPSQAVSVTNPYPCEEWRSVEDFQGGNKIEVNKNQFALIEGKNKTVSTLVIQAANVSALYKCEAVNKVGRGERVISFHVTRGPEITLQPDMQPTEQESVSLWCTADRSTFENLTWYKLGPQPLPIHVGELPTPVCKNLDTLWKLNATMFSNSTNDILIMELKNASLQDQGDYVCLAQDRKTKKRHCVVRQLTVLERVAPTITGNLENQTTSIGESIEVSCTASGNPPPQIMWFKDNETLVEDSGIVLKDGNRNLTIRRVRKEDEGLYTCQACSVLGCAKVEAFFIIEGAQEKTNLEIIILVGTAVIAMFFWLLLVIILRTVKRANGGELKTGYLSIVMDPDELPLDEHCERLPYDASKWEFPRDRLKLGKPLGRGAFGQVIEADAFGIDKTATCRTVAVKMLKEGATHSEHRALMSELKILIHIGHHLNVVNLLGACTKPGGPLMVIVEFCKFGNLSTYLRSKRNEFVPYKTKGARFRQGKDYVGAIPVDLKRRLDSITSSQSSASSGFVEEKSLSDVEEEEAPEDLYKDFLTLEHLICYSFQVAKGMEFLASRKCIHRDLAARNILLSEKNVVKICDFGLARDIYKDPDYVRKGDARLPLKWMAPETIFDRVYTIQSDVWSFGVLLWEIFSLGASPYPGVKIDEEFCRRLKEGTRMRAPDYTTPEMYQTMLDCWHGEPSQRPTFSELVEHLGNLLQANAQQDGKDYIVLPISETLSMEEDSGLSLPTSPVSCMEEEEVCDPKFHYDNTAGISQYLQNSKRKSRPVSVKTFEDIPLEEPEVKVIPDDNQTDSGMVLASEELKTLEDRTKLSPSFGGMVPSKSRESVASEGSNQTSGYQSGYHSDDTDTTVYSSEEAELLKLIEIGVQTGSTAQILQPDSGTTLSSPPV
Experimental: Test for activity against VEGF-receptor tyrosine kinase. The test is conducted using Flt-1 VEGF-receptor tyrosine kinase. The detailed procedure is as follows: 30 μL kinase solution (10 ng of the kinase domain of Flt-1, Shibuya et al., Oncogene 5, 519-24 [1990]) in 20 mM Tris.HCl pH 7.5, 3 mM manganese dichloride (MnCl2), 3 mM magnesium chloride (MgCl2), 10 μM sodium vanadate, 0.25 mg/mL polyethylenglycol (PEG) 20000, 1 mM dithiothreitol and 3 μg/μL poly(Glu,Tyr) 4:1 (Sigma, Buchs, Switzerland), 8 μM [^33P]-ATP (0.2 μCi), 1% DMSO, and 0 to 100 μM of the compound to be tested are incubated together for 10 minutes at room temperature. The reaction is then terminated by the addition of 10 μL 0.25 M ethylenediaminetetraacetate (EDTA) pH 7. Using a multichannel dispenser (LAB SYSTEMS, USA), an aliquot of 20 μL is applied to a PVDF (=polyvinyl difluoride) Immobilon P membrane (Millipore, Bedford, USA), through a Gibco-BRL microtiter filter manifold and connected to a vacuum. Following complete elimination of the liquid, the membrane is washed 4 times successively in a bath containing 0.5% phosphoric acid (H3PO4) and once with ethanol, incubated for 10 minutes each time while shaking, then mounted in a Hewlett Packard TopCount Manifold and the radioactivity measured after the addition of 10 μL Microscint® (β-scintillation counter liquid). IC50-values are determined by linear regression analysis of the percentages for the inhibition of each compound in at least four concentrations (as a rule 0.01, 0.1, 1.0 and 10 μmol).
as §1

SMILES	inhibition at 10 µM (c-Abl) [%]	inhibition at 10 µM (KDR) [%]
Cc1ccc(C(=O)NCC(c2ccccc2)c2ccccc2)cc1Nc1nccc(-c2cccnc2)n1 [Example 49, N-(2,2-Diphenylethyl)-4-methyl-3-[[4-(3-pyridinyl)-2-pyrimidinyl]amino]-benzamide]	72	37
Cc1ccc(C(=O)NC2CCc3ccccc32)cc1Nc1nccc(-c2cccnc2)n1 (stereo not drawn) [Example 50, N-(2,3-Dihydro-1H-inden-1-yl)-4-methyl-3-[[4-(3-pyridinyl)-2-pyrimidinyl]amino]benzamide]	87	83
Cc1ccc(C(=O)NC(c2ccccc2)c2ccccc2)cc1Nc1nccc(-c2cccnc2)n1 [Example 51, N-(Diphenylmethyl)-4-methyl-3-[[4-(3-pyridinyl)-2-pyrimidinyl]amino]benzamide]	92	52
Cc1ccc(C(=O)NCCN2CCCCC2)cc1Nc1nccc(-c2cccnc2)n1 [Example 52, 4-Methyl-N-[2-(1-piperidinyl)ethyl]-3-[[4-(3-pyridinyl)-2-pyrimidinyl]amino]benzamide]	78	37
Cc1ccc(C(=O)Nc2cccc3c2CCCC3)cc1Nc1nccc(-c2cccnc2)n1 [Example 53, 4-Methyl-3-[[4-(3-pyridinyl)-2-pyrimidinyl]amino]-N-(5,6,7,8-tetrahydro-1-naphthalenyl)benzamide]	88	79
Cc1ccc(C(=O)NCc2ccc(C(F)(F)F)cc2)cc1Nc1nccc(-c2cccnc2)n1 [Example 54, 4-Methyl-3-[[4-(3-pyridinyl)-2-pyrimidinyl]amino]-N-[[4-(trifluoromethyl)phenyl]methyl]benzamide]	69	74
CCOCCNC(=O)c1ccc(C)c(Nc2nccc(-c3cccnc3)n2)c1 [Example 56, N-(2-Ethoxyethyl)-4-methyl-3-[[4-(3-pyridinyl)-2-pyrimidinyl]amino]benzamide]	40	44
Cc1ccc(C(=O)NCCN2CCNC2=O)cc1Nc1nccc(-c2cccnc2)n1 [Example 57, 4-Methyl-N-[2-(2-oxo-1-imidazolidinyl)ethyl]-3-[[4-(3-pyridinyl)-2-pyrimidinyl]amino]benzamide]	8	42
Cc1ccc(NC(=O)c2ccc(C)c(Nc3nccc(-c4cccnc4)n3)c2)nc1 [Example 58, 4-Methyl-N-(5-methyl-2-pyridinyl)-3-[[4-(3-pyridinyl)-2-pyrimidinyl]amino]benzamide]	40	26
Cc1ccc(C(=O)N2CCC(O)(c3ccccc3)CC2)cc1Nc1nccc(-c2cccnc2)n1 [Example 59, 1-[4-Methyl-3-[[4-(3-pyridinyl)-2-pyrimidinyl]amino]benzoyl]-4-phenyl-4-piperidinol]	75	83
Cc1ccc(C(=O)Nc2cccc(C(=O)c3ccccc3)c2)cc1Nc1nccc(-c2cccnc2)n1 [Example 60, N-(3-Benzoylphenyl)-4-methyl-3-[[4-(3-pyridinyl)-2-pyrimidinyl]amino]benzamide]	79	36
Cc1ccc(C(=O)NCC(=O)OC(C)(C)C)cc1Nc1nccc(-c2cccnc2)n1 [Example 61, N-[4-Methyl-3-[[4-(3-pyridinyl)-2-pyrimidinyl]amino]benzoyl]-glycine 1,1-dimethylethyl ester]	95	65
CCOC(=O)Cc1ccc(NC(=O)c2ccc(C)c(Nc3nccc(-c4cccnc4)n3)c2)cc1 [Example 62, 4-[[4-Methyl-3-[[4-(3-pyridinyl)-2-pyrimidinyl]amino]benzoyl]amino]benzene-acetic acid ethyl ester]	59	44
Cc1ccc(C(=O)NCCCN(C)c2ccccc2)cc1Nc1nccc(-c2cccnc2)n1 [Example 63, 4-Methyl-N-[3-(methylphenylamino)propyl]-3-[[4-(3-pyridinyl)-2-pyrimidinyl]-amino]benzamide]	74	82
CCOC(=O)C1CCN(Cc2cccc(NC(=O)c3ccc(C)c(Nc4nccc(-c5cccnc5)n4)c3)c2)CC1 [Example 64, 1-[[3-[[4-Methyl-3-[[4-(3-pyridinyl)-2-pyrimidinyl]amino]benzoyl]amino]phenyl]-methyl]-4-piperidinecarboxylic acid ethyl ester]	56	59
CCOC(=O)C(NC(=O)c1ccc(C)c(Nc2nccc(-c3cccnc3)n2)c1)C(=O)OCC [Example 65, [[4-Methyl-3-[[4-(3-pyridinyl)-2-pyrimidinyl]amino]benzoyl]amino]propanedioic acid diethyl ester]	96	60
Cc1ccc(C(=O)NCCN(C(C)C)C(C)C)cc1Nc1nccc(-c2cccnc2)n1 [Example 66, N-[2-[bis(1-Methylethyl)amino]ethyl]-4-methyl-3-[[4-(3-pyridinyl)-2-pyrimidinyl]-amino]benzamide]	67	23
Cc1ccc(C(=O)NCc2cc(C(C)(C)O)cc(C(F)(F)F)c2)cc1Nc1nccc(-c2cccnc2)n1 [Example 68, 4-Methyl-3-[[4-(3-pyridinyl)-2-pyrimidinyl]amino]-N-[[3-[(1-hydroxy-1-methyl-ethyl)]-5-(1,1,1-trifluoromethyl)phenyl]methyl]benzamide]	99	96

From patent publication US7956053B2, “Inhibitors of tyrosine kinases” (Novartis AG, priority 2002, dated 2011)
